The values that follow come from publication PMC314469, “Protein Interaction Networks by Proteome Peptide Scanning” (PLoS Biology, 2004).

One test relates to Myo5 SH3 domain. Kind of test: SPOT analysis of cellulose-bound peptides (WISE), Myo5 SH3 domain (Dataset S4). Conditions: SPOT analysis of cellulose-bound 14-mer yeast proteome peptides, Myo5 SH3 domain; normalized value; mean where the peptide was synthesized more than once. The format is binding, Saccharomyces cerevisiae.
Take MLKALFTPLIPVSF: the “The normalized value in BLU units” value stood at 257.0 BLU. On the same count and under the same terms, under MLNEHGVPVVPSRE stands 199.3 BLU; under MPNLKRLPIPPLQD, 306.9 BLU; under MSWCKERPECPLCR, 268.5 BLU. On the same count and under the same terms, under MTQPKKNPMEPKTD stands 147.2 BLU. For MTVPRNRPMAPFGT, the “The normalized value in BLU units” value is 595.6 BLU. Take NALKLIHPFMPFIS: the “The normalized value in BLU units” value is reported as 170.3 BLU. Still for that read-out and setting: under NAPERAVPILPPRN stands 740.9 BLU; under NAQLRKTPLEPGLE, 175.9 BLU; under NEAPMLSPQRPYST, 111.3 BLU. Take NEHGMNAPSVPEFI: the “The normalized value in BLU units” value came out at 344.1 BLU. The same measure, in the same setting: under NETKLKFPTLPEVP stands 254.7 BLU; under NFPSLIDPHVPTYG, 97.4 BLU. Same read-out and setting: under NKIPKHLPADPIFS stands 277.9 BLU; under NLAPFTQPDFPFQT, 81.4 BLU. On the same count and under the same terms, under NLHGYGHPNPPNEK stands 216.6 BLU; under NLYQRTTPAGPDPS, 114.4 BLU.

For NPFPFPIPEIPSTQ, the “The normalized value in BLU units” value was 86.5 BLU. Take NPQSLARPPPPKRI: the “The normalized value in BLU units” value turned out to be 247.6 BLU.

For the sequence NSGEKIYPQEPPIS, the “The normalized value in BLU units” value is 111.7 BLU. In the case of PEGVFCIPAPPPNV, the “The normalized value in BLU units” value was determined as 82.5 BLU. On the same count and under the same terms, under PEHLFNNPQNPMDF stands 157.1 BLU. Still for that read-out and setting: under PEPTMGSPDAPPLV stands 106.8 BLU; under PFGTFTLPADPEYK, 171.6 BLU; under PFIDYEFPHLPNEL, 98.9 BLU.

With PKKSRVLPPLPFPL, the “The normalized value in BLU units” value came to 3587.4 BLU. In the case of PLPTFSAPSLPQQS, the “The normalized value in BLU units” value was 46960.5 BLU. The same measure, in the same setting: under PLRERIIPILPANS stands 175.1 BLU.

Staying with this test, now noted: SPOT analysis of cellulose-bound peptides probed with Myo5 SH3 domain; normalized value.
With MLFSWPYPEAPIEG, the “The normalized value in BLU units (SPOT analysis, Myo5 SH3)” value was found to be 126.4 BLU. The same measure, in the same setting: under NAIAMALPNEPYPA stands 96.8 BLU; under NAIEMALPNDPYPA, 87.2 BLU; under NALGLDPPPSPEDP, 240.8 BLU. As for NASAMPAPYMPYYY, the “The normalized value in BLU units (SPOT analysis, Myo5 SH3)” value was 225.5 BLU. Same read-out and setting: under NASLLRDPSAPYAH stands 133.8 BLU. On the same count and under the same terms, under NEDTFLPPPPPPPS stands 20439.9 BLU; under NEFLHFDPHIPQPA, 156.4 BLU. On to NEGDLYPPEQPGVD, for which the “The normalized value in BLU units (SPOT analysis, Myo5 SH3)” value stood at 80.1 BLU.

Regarding NEIELLRPRSPVQK, the “The normalized value in BLU units (SPOT analysis, Myo5 SH3)” value is on record as 125.6 BLU. On the same count and under the same terms, under NEKLHETPHLPSPV stands 109.3 BLU. On the same count and under the same terms, under NFLKHYLPSSPGDI stands 172.3 BLU; under NLLSLENPVVPSHY, 75.6 BLU. With NPGSMSMPGVPTSM, the “The normalized value in BLU units (SPOT analysis, Myo5 SH3)” value amounted to 189.7 BLU. For NPLYWLLPSHPYTI, the “The normalized value in BLU units (SPOT analysis, Myo5 SH3)” value was found to be 165.0 BLU.

Consider PAPPPPPPPPPPP, for which the “The normalized value in BLU units (SPOT analysis, Myo5 SH3)” value is given as 53285 BLU. Same read-out and setting: under PEDFLPPPPKPHFA stands 125.8 BLU. Still for that read-out and setting: under PETRMDLPFSPEVN stands 130.3 BLU; under PEVHHHCPGVPCLV, 331.3 BLU; under PEVKHFCPSTPIML, 93.7 BLU. Still for that read-out and setting: under PEVLMDQPYSPLSD stands 78.7 BLU. Consider PFSSMKEPFIPQSS, for which the “The normalized value in BLU units (SPOT analysis, Myo5 SH3)” value was 410.6 BLU.

As for PFYTMPDPANPKYS, the “The normalized value in BLU units (SPOT analysis, Myo5 SH3)” value worked out at 145.1 BLU. In the case of PLAPLPPPPPPSVA, the “The normalized value in BLU units (SPOT analysis, Myo5 SH3)” value turned out to be 4747.6 BLU. The same measure, in the same setting: under PLFGLSIPKTPTLK stands 121.7 BLU; under PLNQLPNPAMPLLH, 104.2 BLU.

The same test, now with this note: SPOT analysis of membrane-bound peptides, Myo5 SH3 domain; normalized value (see methods).
Turning to MKPQKIAPKFPGTV, the “The normalized value in BLU units” value was 415.8 BLU.

For the sequence MLNSKHYPYIPVAN, the “The normalized value in BLU units” value is listed as 170.8 BLU. MQSKKEDPNRPKNL: the “The normalized value in BLU units” value stood at 153.6 BLU. Still for that read-out and setting: under MRRCKDAPIEPPKY stands 155.1 BLU; under NAPPRIFPKAPIYG, 168.1 BLU. For NDDKKTEPDKPAFS, the “The normalized value in BLU units” value was determined as 140.5 BLU.

With NDLVKRFPEQPPLR, the “The normalized value in BLU units” value stood at 21447.2 BLU. Same read-out and setting: under NEFAKFAPDLPVLK stands 135.1 BLU; under NELVKRFPGHPPLR, 300.5 BLU. Same read-out and setting: under NESEKSSPWSPYKV stands 221.5 BLU; under NGKDKSRPPRPPPK, 2621.2 BLU. Same read-out and setting: under NGTWKYNPTVPNEL stands 172.6 BLU. As to NITEKSPPKSPKHK, the “The normalized value in BLU units” value was 292.3 BLU. For the sequence NNLKKRPPTAPQRK, the “The normalized value in BLU units” value turned out to be 418.9 BLU. As for NPIPKSVPLHPKSG, the “The normalized value in BLU units” value is reported as 363.8 BLU.

Consider NQIARQIPFQPWYL, for which the “The normalized value in BLU units” value was found to be 247.7 BLU. On to NRANKYDPKGPIYN, for which the “The normalized value in BLU units” value turned out to be 205.0 BLU. NRKQRSIPLSPIVP: the “The normalized value in BLU units” value worked out at 490.7 BLU.

For the sequence NSFRKILPQEPEIW, the “The normalized value in BLU units” value was 235.4 BLU. On the same count and under the same terms, under NSFSKNDPNFPILK stands 160.5 BLU; under NSNVRIPPTVPSKI, 423.1 BLU; under NTIIKFDPGRPIYN, 271.8 BLU. On the same count and under the same terms, under NTIIKLFPYIPIPV stands 203.7 BLU; under NTVEKLQPGLPVII, 279.7 BLU. Consider NVLLKAKPNDPAAT, for which the “The normalized value in BLU units” value worked out at 155.5 BLU.

For the sequence PCKKKSKPKVPAKN, the “The normalized value in BLU units” value was determined as 579.8 BLU. Still for that read-out and setting: under PELAKNSPLAPIKK stands 125.2 BLU; under PESAKCNPNSPRLK, 253.0 BLU; under PEWRRPHPNIPDAK, 182.7 BLU. As to PHFAKHSPDSPRTS, the “The normalized value in BLU units” value stood at 236.2 BLU. The same measure, in the same setting: under PIGSRYNPNLPVTE stands 187.4 BLU; under PIRLRKRPPPPPPV, 60274.0 BLU.

Staying with this test, now noted: SPOT analysis of membrane-synthesized peptides probed with Myo5 SH3 domain; normalized value.
As to MGLNKDVPHCPESL, the “The normalized value in BLU units (SPOT analysis, Myo5 SH3)” value came to 99.4 BLU.

Take MKAYRANPPLPIDS: the “The normalized value in BLU units (SPOT analysis, Myo5 SH3)” value is 123.1 BLU. The same measure, in the same setting: under MLFMKGSPSEPKCG stands 250.7 BLU. Still for that read-out and setting: under MYDRKVIPRMPWHD stands 357.4 BLU; under MYGSKFIPFGPKCQ, 289.9 BLU. Still for that read-out and setting: under NDMAKPLPTPPTAE stands 113.6 BLU.

As to NDNEKKKPSSPTAA, the “The normalized value in BLU units (SPOT analysis, Myo5 SH3)” value is on record as 98.5 BLU.

Consider NELIKQGPKRPTSA, for which the “The normalized value in BLU units (SPOT analysis, Myo5 SH3)” value was found to be 175.5 BLU.

On to NFPQRMMPPPPGLV, for which the “The normalized value in BLU units (SPOT analysis, Myo5 SH3)” value stood at 617.7 BLU. The same measure, in the same setting: under NGMPRRIPDYPDAF stands 223.3 BLU. The same measure, in the same setting: under NIFQKQLPKMPKEY stands 276.2 BLU; under NIPTKSPPKSPKHK, 12462.9 BLU.

On to NKPKRKRPAPPKKK, for which the “The normalized value in BLU units (SPOT analysis, Myo5 SH3)” value is listed as 872.0 BLU. The same measure, in the same setting: under NLKTKSHPEVPRLD stands 362.8 BLU.

Regarding NLSLRYAPNLPPVI, the “The normalized value in BLU units (SPOT analysis, Myo5 SH3)” value was 778.6 BLU.

For NNSTRPIPAIPMDL, the “The normalized value in BLU units (SPOT analysis, Myo5 SH3)” value was 247.2 BLU. On the same count and under the same terms, under NPFVRINPNRPEAA stands 275.9 BLU; under NPMQKPVPFVPVLD, 420.2 BLU. On the same count and under the same terms, under NQIARQIPYQPWYL stands 163.5 BLU; under NSTVRRKPHSPNKK, 955.5 BLU; under NSVIRGCPGLPDTL, 150.8 BLU. Still for that read-out and setting: under NTINKSNPQGPSDN stands 76.2 BLU; under NTLLKVVPQEPTAV, 154.4 BLU; under NYHHRETPPPPPSN, 317.8 BLU. In the case of PANPKILPKIPSGA, the “The normalized value in BLU units (SPOT analysis, Myo5 SH3)” value is listed as 164.4 BLU. For the sequence PDLNKRPPREPIEF, the “The normalized value in BLU units (SPOT analysis, Myo5 SH3)” value amounted to 192.4 BLU.

For the sequence PFIRRYTPLKPITK, the “The normalized value in BLU units (SPOT analysis, Myo5 SH3)” value was determined as 649.2 BLU. Still for that read-out and setting: under PFLIKFTPKFPQSI stands 974.5 BLU.

For PGGPKFEPLYPREE, the “The normalized value in BLU units (SPOT analysis, Myo5 SH3)” value is 90.0 BLU. Consider PIVKKNVPKPPPLV, for which the “The normalized value in BLU units (SPOT analysis, Myo5 SH3)” value is given as 153.6 BLU. Regarding PKCEKIEPLSPSFK, the “The normalized value in BLU units (SPOT analysis, Myo5 SH3)” value turned out to be 116.4 BLU. Same read-out and setting: under PKHIRNEPVKPFRN stands 360.9 BLU; under PKSPKAYPKLPDIQ, 357.2 BLU; under PKTGKPLPTQPSSS, 193.3 BLU.
